The results in this text go back to US10023565B2, “N,N′ substituted piperidinamine compounds, and preparation method and usage thereof” (Institute of Pharmacology and Toxicology Academy of …, priority 2013, dated 2018).

Assay [1] deals with T1, Hsp70 (Homo sapiens, UniProt P0DMV8).
T1 construct: purchased Enzo Life Sciences ADI-ESP-550-D
Put plainly: Measurement of affinity between compounds and Hsp70 (SPR, BIACORE T100). The assay is classed as binding. The following applies: for Kd: steady state model, 25° C., read-out: KD (binding constant between the compounds and Hsp70). The procedure: Instrument for measuring the affinity between Example compounds and Hsp70 is BIACORE T100 Biomolecular Interaction Analysis (GE, USA), and the positive control drug is VER-155008 that is well-recognized as Hsp70 inhibitor now, and, on the basis of the measured results, according to binding characteristics between the compounds and protein, the binding constant (equilibrium dissociation constant KD) between drugs and protein is calculated by selecting steady state model with the formula: Conc*Rmax/[conc+KD]+offset.
1. Instrument: BIACORE T100 Biomolecular Interaction Analysis (GE, USA)
2. Reagents: PBS Buffer (×10), P20, CM5 chip (GE, USA), Hsp70 (human, ADI-ESP-550-D), manufactured by Enzo Life Sciences.
30 mM mother liquor of the compound was formulated with DMSO, which was diluted to 2 mM application solution with DMSO before use. 5 μl of the application solution was taken and diluted with 95 μl 1.05×PBS to 100 μM, and then diluted in turn with PBS containing 5% DMSO to […]. PBS containing 5% DMSO was used as solvent control.
Hsp70 protein was diluted with 10 mmol/L sodium acetate buffer solution (pH 5.0) to 30 μg/ml, and coupled directly on a hydrophilic carboxylmethyl dextran matrix sensor chip M5 through normalized primary amine coupling reaction, RU=11209, and then the chip was balanced for 1-2 h with PBS Buffer at […].
At a flow rate of […], with PBS containing 5% DMSO as mobile phase, at 25° C., the compound was introduced in the sequence of 0.003, 0.01, 0.03, 0.1, 0.3, 1, 3 and 10 μM, with binding time of 90 seconds, and dissociation time of 120 seconds.
According to binding characteristics between the compounds and protein, the binding constant (equilibrium dissociation constant KD) between drugs and protein was calculated by selecting steady state model with the formula: Conc*Rmax/[conc+KD]+offset.
(In general: In SPR one partner is held on a chip, and binding of the other changes the refractive index at the surface.)

Assay [2] relates to BT474. Put plainly: Antitumor bioactivity evaluation, breast cancer cells (ATPlite). Type of assay: cell-based. The following applies: Homo sapiens, BT-474; test sample 5 μM, 72 hours; read-out: Inhibitory Rate % BT474. A digest of the protocol:
(§1)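 Single-concentration screen: 5 μM compound, or 5 μM compound plus 1 μM lapatinib, on adhered cells (5000/well) for 72 h. Viability by ATPlite luminescence relative to solvent control.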
(Cellular ATP, detected with luciferase, serves as a proxy for viable cell number.)

Assay [3] concerns MDA-MB-361. The assay is described as above. The assay is classed as cell-based. The following applies: Homo sapiens, test sample 5 μM, 72 hours, read-out: Inhibitory Rate % MDA-MB-361. An outline of the steps:
as §1

The subject of assay [4] is MDA-MB-453. The assay is described as above. Type of assay: cell-based. The following applies: Homo sapiens, test sample 5 μM, 72 hours, read-out: Inhibitory Rate % MDA-MB-453. An outline of the steps: as §1
Assay [5] concerns SK-BR3. Described as above. The following applies: Homo sapiens, SK-BR-3; test sample 5 μM, 72 hours; read-out: Inhibitory Rate % SK-BR3. Type of assay: cell-based. A digest of the protocol:
as §1

Assay [6] concerns SK/Lap^R1.0. The description is as above. The assay is classed as cell-based. The following applies: Homo sapiens; test sample 5 μM, 72 hours; read-out: Inhibitory Rate % SKLap^R1.0. A digest of the protocol: as §1
Assay [7] deals with BT/Lap^R1.0. Described as above. The assay is classed as cell-based, human. The following applies: Homo sapiens; test sample 5 μM, 72 hours; read-out: Inhibitory Rate % BT/Lap^R1.0. A digest of the protocol:
as §1

T1 sequence (P0DMV8 whole entry): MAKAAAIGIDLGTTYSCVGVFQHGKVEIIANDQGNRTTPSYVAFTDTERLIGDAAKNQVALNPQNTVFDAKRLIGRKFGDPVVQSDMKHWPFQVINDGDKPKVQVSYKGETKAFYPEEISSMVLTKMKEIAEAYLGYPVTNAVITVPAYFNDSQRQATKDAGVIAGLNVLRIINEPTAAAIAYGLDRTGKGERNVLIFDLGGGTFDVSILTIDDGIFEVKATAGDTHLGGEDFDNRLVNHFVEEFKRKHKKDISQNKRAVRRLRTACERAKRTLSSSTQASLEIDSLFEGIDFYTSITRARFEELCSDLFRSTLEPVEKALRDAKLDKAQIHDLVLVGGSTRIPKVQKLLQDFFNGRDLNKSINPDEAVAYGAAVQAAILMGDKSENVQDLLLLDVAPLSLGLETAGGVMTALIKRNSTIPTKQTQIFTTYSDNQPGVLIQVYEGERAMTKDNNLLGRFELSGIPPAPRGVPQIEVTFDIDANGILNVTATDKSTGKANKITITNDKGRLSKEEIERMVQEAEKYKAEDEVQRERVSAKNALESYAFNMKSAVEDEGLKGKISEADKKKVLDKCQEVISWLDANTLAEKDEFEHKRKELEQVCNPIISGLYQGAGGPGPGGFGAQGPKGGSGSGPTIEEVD

Regarding `Fc1ccc(CNC2CCN(Cc3cnc(Cl)s3)CC2)cc1` [Example 12, N-(4-fluorobenzyl)-N-{1-[(2-chlorothiazol-5-yl)methyl]piperidin-4-yl}amine], the “KD compared with positive control drug VER-155008” value in assay [1] is reported as “KD values equivalent to that of the positive control drug VER-155008”. For the same compound, in assay [1], the Kd is 200 nM. For the same compound, the inhibition at 5 µM turned out to be 5.4% in assay [2]; 4.8% in assay [3]; 0.1% in assay [4]; 22.4% in assay [5]; 4.4% in assay [6]; 9.1% in assay [7].
As to `CN(Cc1ccccc1C#N)C1CCN(Cc2cnc(Cl)s2)CC1` [Example 14, N-methyl-N-(2-cyanobenzyl)-N-{1-[(2-chlorothiazol-5-yl)methyl]piperidin-4-yl}amine], the “KD compared with positive control drug VER-155008” value in assay [1] is given as “KD values equivalent to that of the positive control drug VER-155008”. Moreover, the Kd in assay [1] came to 245 nM. The inhibition at 5 µM in assay [2] is -4.1%; in assay [3], -8.5%; in assay [4] it was 8.2%; in assay [5], 7.3%; in assay [6], 4.2%; in assay [7], 4%.
With `CSc1nccc(N2CCC(N(C)Cc3ccc(F)cc3)CC2)n1` [Example 35, N-methyl-N-(4-fluorobenzyl)-N-[1-(2-methylthiopyrimidin-4-yl)piperidin-4-yl]amine], in assay [1], the “KD compared with positive control drug VER-155008” value is recorded as “KD values equivalent to that of the positive control drug VER-155008”. Besides, the Kd in assay [1] came to 204 nM. Besides, the inhibition at 5 µM in assay [2] amounted to 40.5%; in assay [3], 46%; in assay [4], 82.3%; in assay [5], 31.5%; in assay [6], 30.9%; in assay [7], 44.7%.
Take `COc1cc(N2CCC(N(C)Cc3ccccc3Cl)CC2)ncn1` [Example 58, N-methyl-N-(2-chlorobenzyl)-N-[1-(6-methoxypyrimidin-4-yl)piperidin-4-yl]amine]: the inhibition at 5 µM came to 27.7% in assay [2]; 20.3% in assay [3]; 46.7% in assay [4]; 13.5% in assay [5]; 29% in assay [6]; 18.9% in assay [7].
For the compound `COc1cc(N2CCC(N(C)Cc3ccc(C)cc3)CC2)ncn1` [Example 59, N-methyl-N-(4-methylbenzyl)-N-[1-(6-methoxypyrimidin-4-yl)piperidin-4-yl]amine], the inhibition at 5 µM in assay [2] came out at 5%; in assay [3], 10.6%; in assay [4], 13.4%; in assay [5] it was 20.6%; in assay [6], 22%; in assay [7], 8%.
Turning to `COc1cc(N2CCC(N(C)Cc3c(Cl)cccc3Cl)CC2)ncn1` [Example 60, N-methyl-N-(2,6-dichlorobenzyl)-N-[1-(6-methoxypyrimidin-4-yl)piperidin-4-yl]amine], the inhibition at 5 µM in assay [2] came to 53.6%; in assay [3], 30.8%; in assay [4], 65.1%; in assay [5], 22.8%; in assay [6] it was 19.2%; in assay [7] it was 52.5%.
As to `COc1cc(N2CCC(N(C)Cc3ccc(Cl)c(Cl)c3)CC2)ncn1` [Example 61, N-methyl-N-(3,4-dichlorobenzyl)-N-[1-(6-methoxypyrimidin-4-yl)piperidin-4-yl]amine], the inhibition at 5 µM in assay [2] came out at 9.8%; in assay [3], 6.5%; in assay [4] it was 12.7%; in assay [5] it was 16.1%; in assay [6], 28%; in assay [7] it was 9.2%.
Consider `COc1cc(N2CCC(N(C)Cc3ccc(F)cc3)CC2)ncn1` [Example 62, N-methyl-N-(4-fluorobenzyl)-N-[1-(6-methoxypyrimidin-4-yl)piperidin-4-yl]amine], for which the inhibition at 5 µM in assay [2] came to 7.8%; in assay [3], 4.9%; in assay [4], 5%; in assay [5], 7.6%; in assay [6], 5.7%; in assay [7], 8.1%.
Turning to `COc1cc(N2CCC(N(C)Cc3cccc(Cl)c3)CC2)ncn1` [Example 63, N-methyl-N-(3-chlorobenzyl)-N-[1-(6-methoxypyrimidin-4-yl)piperidin-4-yl]amine], the inhibition at 5 µM in assay [2] worked out at 11.9%; in assay [3], 25.6%; in assay [4] it was 23.8%; in assay [5], 12.6%; in assay [6] it was 24.8%; in assay [7], 9.4%.
Turning to `COc1cc(N2CCC(N(C)Cc3c(F)cccc3Cl)CC2)ncn1` [Example 64, N-methyl-N-(2-fluoro-6-chlorobenzyl)-N-[1-(6-methoxypyrimidin-4-yl)piperidin-4-yl] amine], the inhibition at 5 µM in assay [2] is 45.9%; in assay [3], 39.6%; in assay [4], 59.4%; in assay [5], 15.5%; in assay [6] it was 16.6%; in assay [7], 48.5%.
With `COc1cc(N2CCC(N(C)Cc3ccccc3C#N)CC2)ncn1` [Example 65, N-methyl-N-(2-cyanobenzyl)-N-[1-(6-methoxypyrimidin-4-yl)piperidin-4-yl]amine], the inhibition at 5 µM worked out at 65.8% in assay [2]; 42.7% in assay [3]; 66.1% in assay [4]; 23.3% in assay [5]; 16.8% in assay [6]; 62.2% in assay [7].
`COc1cc(N2CCC(N(C)Cc3ccc(C#N)cc3)CC2)ncn1` [Example 66, N-methyl-N-(p-cyanobenzyl)-N-[1-(6-methoxypyrimidin-4-yl)piperidin-4-yl]amine]: the inhibition at 5 µM in assay [2] was found to be 25.1%; in assay [3], 20.3%; in assay [4] it was 46.1%; in assay [5], 17.3%; in assay [6] it was 8.8%; in assay [7] it was 16.9%.
In the case of `COc1cc(N2CCC(N(C)Cc3cc(Cl)ccc3Cl)CC2)ncn1` [Example 67, N-methyl-N-(2,5-dichlorobenzyl)-N-[1-(6-methoxypyrimidin-4-yl)piperidin-4-yl]amine], the inhibition at 5 µM stood at 45.9% in assay [2]; 27.6% in assay [3]; 61.1% in assay [4]; 29.2% in assay [5]; 9.4% in assay [6]; 32.1% in assay [7].
Turning to `COc1cc(N2CCC(N(C)Cc3cccc(F)c3)CC2)ncn1` [Example 68, N-methyl-N-(3-fluorobenzyl)-N-[1-(6-methoxypyrimidin-4-yl)piperidin-4-yl]amine], the inhibition at 5 µM came to 5.4% in assay [2]; 8.4% in assay [3]; 9.4% in assay [4]; 5.2% in assay [5]; 30.1% in assay [6]; 5.6% in assay [7].
On to `CS(=O)(=O)CCNCc1ccc(-c2ccc3ncnc(Nc4ccc(OCc5cccc(F)c5)c(Cl)c4)c3c2)o1` [lapatinib, reference compound], for which the inhibition at 5 µM came to 75.6% in assay [2]; 40.2% in assay [3]; 42.6% in assay [4]; 79% in assay [5]; 10.4% in assay [6]; 18% in assay [7].

The Kd is the free concentration of one partner at which half of the binding sites on the other are occupied at equilibrium, for simple one-to-one binding.
